For data set [1], the system named is back of New Zealand White Rabbit. The data set is described as follows: Retinol-induced skin irritation on rabbit back, Draize Primary Irritation Index. To be noted: for Irritation Index: Draize Primary Irritation Index, 0.01% agent applied with 1000 I.U. retinol as irritation source, twice a day, rabbit back skin; for Relative Ratio: irritation relative to blank applied only with retinol, 0.01% agent. Type of data set: in vivo. On the procedure: The hairs on the back of New Zealand White Rabbit were removed and fed with sufficient water and nutrition. At the areas of 1.5 cm×1.5 cm on the back of the rabbit, menthol, menthol 3-aminopropylphosphate (MPA) and 1000 I.U. of retinol as irritation source were applied respectively. The number of applying positions for each rabbit was 8˜10, and the agents were applied twice a day with 6 hours of time interval. The applied positions were exposed to air. Erythema, rash or edema was measured everyday after 48 hours has passed from the first apply during 1 week to observe the irritation. According to the “Primary Irritation Index” of Draize, the degree of irritation was determined. Relative irritation was calculated with the ratio to the blank sample that applied only with retinol, and the results are shown in Table 1 and FIG. 1.

Data set [2] is described as follows: Solubility in aqueous and aqueous mixed solution. The source says:
To observe the solubility of the menthol 3-aminopropylphosphate in the aqueous phase, solubility were measure in aqueous and aqueous mixed solution.
Menthol was used as relativity group.

The subject of a further data set is phosphatase. Briefly: Hydrolysis by phosphatase in phosphoric buffer pH 7.4, HPLC. Type of data set: in vitro ADME. To be noted: 3-aminopropylphosphoric acid measured by HPLC (FIG. 2). On the procedure: To clarify the activity of menthol 3-aminopropylphosphate obtained in Example 2, the hydrolysis of the menthol 3-aminopropylphosphate by a phosphatase in the skin was observed. That is, the preparation of menthol and 3-aminopropylphosphoric acid by the hydrolysis was observed.
3-aminopropylphosphate and phosphatase were added to phosphoric buffer solution with pH 7.4, then, hydrolysis was performed. The phosphatase used above was Alkaline Phosphate manufactured by SIGMA, Co., Ltd.
The amount of the 3-aminopropylphosphoric acid prepared by the hydrolysis was measured by means of HPLC, and the results are shown in FIG. 2.

On to `C[C@]12CCC(=O)C=C1CC[C@@H]1[C@@H]2[C@@H](O)C[C@@]2(C)[C@H]1CC[C@]2(O)C(=O)CO` [hydrocortisone], for which, in data set [1], the “Irritation Index” value is reported as 5.10 and the “Relative Ratio” value was 0.53.
On to `CC1CCC(C(C)C)C(OP(=O)(O)OCCCN)C1` (stereo not drawn) [menthol 3-aminopropyl phosphate, Menthol 3-Aminopropylphosphate], for which the solubility is 0.3% in data set [2] (H2O), 5% in data set [2] (H2O:1,3-BG = 1:1), 6% in data set [2] (H2O:Ethanol = 1:1) and 1% in data set [2] (H2O:Ethanol = 5:1). Moreover, the “aqueous solubility compared with menthol” value in data set [2] (in words) was “increased very much compared with menthol itself”. Besides, the “Irritation Index” value in data set [1] worked out at 6.07. The “Relative Ratio” value in data set [1] came out at 0.63. In addition, the hydrolysis by phosphatase entry with phosphatase is “hydrolyzed by the phosphatase of the skin and formed menthol and 3-aminopropylphosphoric”.
Turning to `CC1CCC(C(C)C)C(O)C1` (stereo not drawn) [menthol], in data set [1], the “Irritation Index” value is recorded as 9.34 and the “Relative Ratio” value stood at 0.97.
